Patent US7396655B2, “Method for enhancing activity of luciferase with fluorescence activity” (Chisso Corporation, priority 2005, dated 2008)
“Also recorded” adds a separate entry of the source. Where two headings read alike, the source gives them in different places.

Experiments:
[1] = target: T1, Renilla reniformis luciferase (Renilla reniformis, UniProt P27652); experiment: Control experiment: Renilla reniformis luciferase luminescence with imidazole; type: biochemical; settings: increasing concentrations of imidazole
T1 construct: histidine tag (N); made in house; host or cells: E. coli Top10
T1 sequence (P27652 1-311): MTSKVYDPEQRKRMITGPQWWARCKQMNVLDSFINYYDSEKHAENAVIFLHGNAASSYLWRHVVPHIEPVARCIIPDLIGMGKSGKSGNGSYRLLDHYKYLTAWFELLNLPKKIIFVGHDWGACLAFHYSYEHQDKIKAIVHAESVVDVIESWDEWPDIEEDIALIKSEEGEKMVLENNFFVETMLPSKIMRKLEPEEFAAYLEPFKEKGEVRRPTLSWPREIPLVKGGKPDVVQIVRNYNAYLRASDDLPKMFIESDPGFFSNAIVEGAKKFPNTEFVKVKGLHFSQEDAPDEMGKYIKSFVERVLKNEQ
Experimental: Renilla reniformis luciferase, a monomeric luciferase (36 kDa) derived from Renilla reniformis, catalyzes oxidation of the substrate coelenterazine to trigger light emission.
50 mM Tris-HCl buffer (200 μl), pH 7.6, was pre-warmed at 25° C., to which the substrate coelenterazine (1 μg/μl) dissolved in ethanol was added. A light-emitting reaction was triggered by adding Renilla reniformis luciferase (1.2 μg). […] The measured values were represented as the maximum intensity (Imax) of luminescence activity.
As a control experiment, the same experiment was conducted using Renilla reniformis luciferase, which contains coelenterazine as luminescent substrate. […] That is, it was shown that the enhancing effect on luminescence activity by the addition of imidazole is specific for BFP-aq.

[2] = target: T2, BFP-aq, luciferase with fluorescence activity derived from aequorin (recombinant apoaequorin, SEQ ID NO: 1 with N-terminal Val replaced by Ala-Asn-Ser); complex (Aequorea victoria, UniProt P02592); experiment: Optimal imidazole concentration for enhancing BFP-aq luminescence (FIG. 5); type: biochemical; settings: pH 8.0, 25° C., coelenterazine substrate; compared with no imidazole
T2 construct: The recombinant apoaequorins encoded by piP-HE is composed of 191 amino acids, whose N-terminus starts from Ala-Asn-Ser-; made in house; host or cells: E. coli strain WA802 (expression vector piP-HE)
T2 sequence (P02592 with tags, fused parts or gaps): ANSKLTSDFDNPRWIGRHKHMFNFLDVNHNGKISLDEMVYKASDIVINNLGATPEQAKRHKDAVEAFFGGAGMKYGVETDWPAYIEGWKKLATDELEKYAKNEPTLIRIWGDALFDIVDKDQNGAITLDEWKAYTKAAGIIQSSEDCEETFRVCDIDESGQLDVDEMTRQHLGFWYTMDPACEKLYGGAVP
Experimental: 50 mM Tris-HCl (pH 8.0) containing imidazole at various concentrations (0. 1, 0.3, 1, 3, 10, 30, 60, 100, 150, 200, 250, 300, 400, 500, 600, 700, 800, 900, and 1000 mM) was prepared and pre-warmed at 25° C. The substrate coelenterazine (1 μg) was added to each imidazole-containing solution (200 μl). […] Assuming that the maximum intensity activity (Imax) of BFP-aq luminescence activity in 50 mM Tris-HCl (pH 8.0) is 100%, the relative luminescence activity values are shown in FIG. 5.

[3] = target: T2, BFP-aq, luciferase with fluorescence activity derived from aequorin (recombinant apoaequorin, SEQ ID NO: 1 with N-terminal Val replaced by Ala-Asn-Ser); complex; experiment: Light-emitting reaction rate of BFP-aq, Lineweaver-Burk plot (Table 6); type: biochemical; settings: with or without 150 mM imidazole
[4] = target: T3, Renilla reniformis luciferase (recombinant, N-terminal histidine tag) (Renilla reniformis, UniProt P27652); experiment: Effect of imidazole on Renilla reniformis luciferase luminescence (control, FIG. 5); type: biochemical; settings: increasing concentrations of imidazole (0.1 to 1000 mM), pH 8.0, coelenterazine substrate
T3 sequence (P27652 1-311): T1 sequence (P27652 1-311)
Experimental: (§1) 50 mM Tris-HCl (pH 8.0) containing imidazole at various concentrations (0. 1, 0.3, 1, 3, 10, 30, 60, 100, 150, 200, 250, 300, 400, 500, 600, 700, 800, 900, and 1000 mM) was prepared and pre-warmed at 25° C. The substrate coelenterazine (1 μg) was added to each imidazole-containing solution (200 μl).
(§2) As a control experiment, the same experiment was conducted using Renilla reniformis luciferase, which contains coelenterazine as luminescent substrate.

BFP-aq [5] = target: T4, BFP-aq (Aequorea victoria, UniProt P07164); settings: with vs without 150 mM imidazole
Experimental: Then, luminescence activity was measured with the luminometer Luminescencer-PSN AB2200 (manufactured by Atto Co., Ltd.) for 60 seconds. Using the luminescence activity for the first 3 sec of the light-emitting reaction as the initial reaction rate, Km values were determined by the Lineweaver-Burk plot method.

BFP-aq [6] = target: T4, BFP-aq; experiment: biochemical; type: biochemical; parameters: The recombinant apoaequorins encoded by piP-HE is composed of 191 amino acids, whose N-terminus starts from Ala-Asn-Ser-; made in house; host or cells: E. coli strain WA802
Experimental: Solutions of 50 mM Tris-HCl (pH 8.0), each containing various commercial organic compounds shown in Table 3, were prepared and pre-warmed at 25° C. The substrate coelenterazine (1 μg) was added to the solutions (200 μl) containing each of these compounds.

BFP-aq [7] = target: T4, BFP-aq; type: biochemical; parameters: The recombinant apoaequorins encoded by piP-HE is composed of 191 amino acids, whose N-terminus starts from Ala-Asn-Ser-; made in house; host or cells: E. coli strain WA802; settings: pH 8.0
Experimental: as §1, §2

[8] = target: T2, BFP-aq, luciferase with fluorescence activity derived from aequorin (recombinant apoaequorin, SEQ ID NO: 1 with N-terminal Val replaced by Ala-Asn-Ser); complex; experiment: Luminescence of BFP-aq with coelenterazine and analogs, with/without imidazole (Table 5); type: biochemical; settings: without imidazole; pH 8.0; coelenterazine without imidazole = 100%
Experimental: 200 μl of this solution was placed in five vessels, to each of which 1 μg of the substrate coelenterazine (CTZ) and its four analogs: h-CTZ, cp-CTZ, hcp-CTZ, f-CTZ were added. […] Assuming that the maximum intensity activity (Imax) and initial velocity of BFP-aq luminescence activity in 50 mM Tris-HCl (pH 8.0) was 100%, the effect of the addition of imidazole on luminescence activity was examined.

[9] = pH 8, read-out: Luminescence activity (%) Imax
[10] = pH 8, read-out: Luminescence activity (%) Initial velocity

| Compound | Effect on luminescence activity of Renilla reniformis luciferase [1] | Luminescence activity of BFP-aq with imidazole, in words [2] | Km change with imidazole, in words [3] | Vmax change with imidazole, in words [3] | Luminescence activity of Renilla reniformis luciferase with imidazole, in words [4] | Change of Km values (BFP-aq [5]) | Change of Vmax (BFP-aq [5]) | activity at 30000 µM (BFP-aq [6]; [9]) [%] | activity at 150000 µM (BFP-aq [6]; [9]) [%] | activity at 30000 µM (BFP-aq [6]; [10]) [%] | activity at 150000 µM (BFP-aq [6]; [10]) [%] | Enhancement of BFP-aq luminescence activity (Imax), in words (BFP-aq [6]; pH 8.0, Table 4 comparison) | Luminescence activity compared with the system without imidazole (BFP-aq [7]; 150 mM imidazole) | Effect on luminescence activity of BFP-aq (BFP-aq [7]; 30 to 250 mM imidazole) | Relative luminescence activity, Imax [8] [%] |
| --- | --- | --- | --- | --- | --- | --- | --- | --- | --- | --- | --- | --- | --- | --- | --- |
| c1c[nH]cn1 [Imidazole] | remarkably inhibited | enhanced at 30 to 250 mM imidazole; also recorded: more than two-fold of the luminescence activity | no marked changes were found in the Km values | only Vmax was doubled in the system with imidazole | remarkably inhibited with increasing concentrations of imidazole | no marked changes | doubled | 148 | 199 | 153 | 205 | marked luminescence activity (Imax) occurs only when 150 mM imidazole was added | more than two-fold | enhanced | – |
| O=c1c(Cc2ccc(O)cc2)nc2c(CC3CCCC3)[nH]c(-c3ccc(O)cc3)cn1-2 [cp-Coelenterazine, cp-coelenterazine] | – | – | – | – | – | – | – | – | – | – | – | – | – | – | 54 |
